# Source: patent US20240293483A1, “PROBIOTIC COMPOSITION FOR THE TREATMENT OF INCREASED INTESTINAL PERMEABILITY” (AB-BIOTICS, S.A., priority 2021, published 2024)
# Experiments:
# [1] = tested on: Caco-2 intestinal epithelial cells; experiment: Adhesion to the intestinal epithelium in vitro; assay type: cell-based; conditions: Caco-2 monolayers, MOI 1:5, 1 h at 37° C., % of LOG cfu/mL
# Experimental: Adhesion to the intestinal epithelium was studied in vitro using Caco-2 intestinal epithelial cells. Bacterial suspensions were added to Caco-2 monolayers (Multiplicity of infection (MOI) 1:5 cells to probiotic) and to wells without Caco-2 cells as controls. After 1 h of incubation at 37° C., medium was removed, cells were detached, and suspensions recovered. Bacteria were enumerated in the obtained suspension by serial dilutions and plate count. Bacteria in the medium of the control wells were also quantified. B. longum subsp. longum ATCC 15707 was used as quality control with a known adhesion percentage of 47-55.
# HSP27 = HSP27 production by Western blot; assay type: cell-based; conditions: Caco-2, 16 h, high-polyP supernatant (MEI) vs low-polyP supernatant (LP); normalized to β-actin
# Experimental: The production of HSP27 was studied in Caco-2 intestinal epithelial cells in confluence by Western blot assay as described by Alcántara et al., 2018 with some modifications. Bacterial supernatants were added to the cell cultures and incubation proceeded for 16 h. MEI and LP media were used as controls. To recover HSP27, cells were lysed with […] and boiled for 5 min. Proteins were separated in SDS-PAGE gel and then transferred to a nylon membrane (blot). The blots were incubated with a rabbit polyclonal anti-HSP27 serum or with a mouse monoclonal anti-β-actin antibody (protein used for normalization). After washing, secondary antibodies peroxidase-conjugated anti-rabbit IgG and anti-mouse IgG, respectively, were used. Blots images were captured, and proteins were quantified in an Imagin 680 system.
# polyP [2] = experiment: PolyP amount in culture supernatants (extracellular); conditions: 16 h
# Experimental: B. longum CECT 7894 was grown in MEI medium and Low Phosphate (LP) medium. The last medium has the same composition as MEI but without the addition of polyP precursors (K2HPO4 and KH2PO4), thus the strain cannot produce high amounts of polyP. After 16 h growth cultures were centrifuged and supernatants collected, filtered, and adjusted to neutral pH. PolyP amounts were measured as described in EXAMPLE 1.
# Occludin = experiment: Expression of tight junction genes by qPCR: occludin; assay type: cell-based; conditions: Caco-2, 16 h, high-polyP vs low-polyP supernatant
# Experimental: (§1) Caco-2 cells were exposed for 16 h to supernatants of B. longum CECT 7894 grown in MEI and LP media. Then, cells were recovered, and RNA extracted with TRIZOL reagent. cDNA was obtained from RNA using SuperScript VILO cDNA synthesis kit. Quantitative PCR (qPCR) reactions were performed with SYBR Green in the conditions indicated by manufacturer. Expression of tight junction proteins Zonula ocludens-1 (ZO1), Junctional adhesion protein-1 (JAM1) and occluding was quantified. Expression of 18S rRNA and GADPH genes were used for normalization.
# [3] = tested on: Junctional adhesion protein-1 (JAM1); experiment: Expression of tight junction genes by qPCR: JAM1; assay type: cell-based; conditions: Caco-2, 16 h, high-polyP vs low-polyP supernatant
# Experimental: as §1
# Zonula ocludens-1 (ZO1) = experiment: Expression of tight junction genes by qPCR: ZO1; assay type: cell-based; conditions: Caco-2, 16 h, high-polyP vs low-polyP supernatant
# Experimental: as §1
# [4] = tested on: dextran sulfate sodium (DSS)-induced colitis; conditions: mice, combined with infliximab; cited from earlier work
# [5] = Stability of the strain in final product (plate counting of cfus, Zone II storage); assay type: physicochemical; conditions: 25° C., 60% RH
# Experimental: The product was packaged in glass amber bottles and stored under Zone II conditions (25° C., 60% Relative Humidity (RH)). […] Results were expressed in LOG (cfus). Trend line was obtained and predicted cfus at 12 months were estimated. Fold and log reduction comparing cfus between 0 and 12 months were calculated.
# Caco-2 cells monolayer = experiment: Barrier integrity (TEER) and permeability (Papp of Lucifer Yellow) of Caco-2 monolayer; assay type: cell-based; conditions: Caco-2, 72 h apical exposure to high-polyP supernatant (MEI culture) vs low-polyP supernatant and controls
# Experimental: Integrity of Caco-2 cells monolayer was evaluated by measuring transepithelial electrical resistance (TEER) and permeability by the apparent permeability coefficients (Papp) of the paracellular transport marker Lucifer Yellow.
# Caco-2 cells were seed in porous membrane inserts with apical (upper) and basolateral (lower) compartments. Medium Essential Medium Eagle (MEM) was added to both compartments. Cells were treated with supernatants of B. longum CECT 7894 grown in MEI and LP media. Additional cells were treated with MEM, non-fermented MEI and LP media and used as controls.
# After 72 h of treatment, TEER and permeability were determined. TEER was measured with a Millicell®-ERS voltammeter. For the permeability assay, Lucifer Yellow was added to the apical compartment. At 15, 30, 45, 60, 90 and 120 min, aliquots were taken from the basolateral compartment and the fluorescence of the Lucifer Yellow transported was measured with a fluorescence microplate reader at excitation/emission wavelengths of 485/520 nm.
# polyP [6] = experiment: Polyphosphate (polyP) production assay: hypochlorite extraction from cells, DAPI fluorescence quantification
# Experimental: For polyP production assay, malic enzyme induction (MEI) medium containing (per liter, w/v) 0.5% yeast extract, 0.5% tryptone, 0.4% K2HPO4, 0.5% KH2PO4, 0.02% MgSO4·7H2O, 0.005% MnSO4, 1 ml of Tween 80, 0.05% cysteine, and 0.5% glucose was used (Alcántara et al. 2014). The strains unable to grow in MEI were grown in MRScys. Cultures were inoculated at OD (595 nm) 0.1 and each strain was grown under the conditions indicated above. Growth was monitored by measuring OD for 16 h.
# PolyP was isolated from cells by its resistance to hydrolysis with sodium hypochlorite as previously described (Alcántara et al. 2014). Cells were harvested by centrifugation and lysed in 1 ml of 5% sodium hypochlorite with gentle agitation for 45 min at room temperature. Insoluble material was pelleted by centrifugation at 16,000 g for 5 min at 4° C. and washed twice with 1 ml of 1.5 M NaCl plus 1 mM EDTA at 16,000 g for 5 min at 4° C. PolyP was extracted from the pellets with two consecutive washes with 1 ml of water and a centrifugation step at 16,000 g for 5 min at 4° C. between them. PolyP in the pooled water extracts was precipitated by adding 0.1 M NaCl and 1 volume of ethanol, followed by incubation on ice for 1 h. After centrifugation at 16,000 g for 10 min, the polyP pellet was resuspended in 50 μL of water.
# A standard curve relating phosphate amount to fluorescence intensity was built to quantify the extracted polyP from the strains. As a first step, serial dilutions of a sample of polyP isolated from the polyphosphate-producer control strain Lactiplantibacillus plantarum strain WCFS1 (Alcántara et al. 2014) were prepared. Second, the dilutions were hydrolyzed with a volume of 2 M HCl, incubated at 95° C. for 15 min to release phosphate and then neutralized by adding […] of 2 M NaOH. Third, the released phosphate from each dilution was quantified with BIOMOL Green Kit (Enzo Life Sciences) as recommended by the manufacturer. In parallel, the released phosphate from each dilution was dyed using 4′,6-diamidino-2-phenylindole (DAPI) at a final concentration of 10 μM in 50 mM Tris-HCl pH 7.5, 50 mM NaCl buffer and fluorescence was measured with an excitation wavelength of 415 nm and emission at 550 nm in a fluorimeter. Finally, a standard curve was built with phosphate values and the corresponding fluorescence values obtained.
# Once the standard curve is obtained, polyP amounts from the samples can be quantified according to fluorescence values, without the need of using BIOMOL Green kit. Therefore, the quantification of polyP from the strain samples was indirectly measured by DAPI fluorescence using the standard curve. Firstly, the extracted polyP was measured by fluorescence using DAPI at a final concentration of 10 μM in 50 mM Tris-HCl pH 7.5, 50 mM NaCl buffer with an excitation wavelength of 415 nm and emission at 550 nm in a fluorimeter. Then, the amount of polyP was calculated as nmol of phosphate by means of the standard curve. At least three biological replicates were performed.
# B. longum CECT 7894 was grown in medium MEI without glucose supplemented with i) breast milk (1% v/v); ii) LNT (1% w/v); iii) polyamines, in quantities found in breast milk: 70.0, 424.2 and 610.0 […] of putrescine, spermidine and spermine, respectively, and glucose (0.5% w/v); and iv) glucose (0.5% w/v) as positive control. Growth (OD550) and polyP production were determined after 6 and 16 h of incubation.
substance,measurement,setting,value
Bifidobacterium longum subsp. longum KABP-042 (CECT 7894),Adhesion to intestinal epithelium (%),[1],70.8%
same,Adhesion to intestinal epithelium (%),[1]; listed as B. longum subsp. longum KABP042 (CECT 7894),70.8%
same,production of HSP27,HSP27,significantly higher production of HSP27
same,"PolyP amount in supernatant, MEI medium",polyP [2]; high phosphate (MEI medium),2.24 nmol
same,"PolyP amount in supernatant, LP medium",polyP [2]; low phosphate (LP medium),0.22 nmol
same,expression of tight junction protein Occludin,Occludin,induced
same,expression of tight junction protein JAM1,[3],induced
same,expression of tight junction protein ZO1,Zonula ocludens-1 (ZO1),induced
same,effect on efficacy of infliximab in DSS-induced colitis,[4],improved the efficacy of infliximab
same,LOG (cfus) estimated at 12 months,"[5]; final product in sunflower oil, trend line from 0-6 months",9.01 LOG (cfus)
same,LOG loss over 12 months,"[5]; final product, 0 vs 12 months",~0.5 LOG
same,transepithelial electrical resistance (TEER),Caco-2 cells monolayer,higher TEER
same,times more polyP than B. scardovii BAA-773,polyP [6]; 6 h,140 times
same,times more polyP than L. plantarum WCFS1,polyP [6]; 6 h values (12.7 vs 230.9 nmol),18 times
same,"PolyP 6 h, Polyamines","polyP [6]; MEI + polyamines (putrescine, spermidine, spermine) + glucose 0.5%, 6 h",111.0 nmol
same,"PolyP 16 h, Polyamines","polyP [6]; MEI + polyamines + glucose 0.5%, 16 h",48.6 nmol
same,PolyP 6 h,"polyP [6]; MEI or MRScys, inoculated at OD 0.1, 6 h of growth, nmol of phosphate",230.9 nmol
same,PolyP 16 h,"polyP [6]; MEI or MRScys, inoculated at OD 0.1, 16 h of growth, nmol of phosphate",258.3 nmol
same,"PolyP 6 h, Control (glucose)","polyP [6]; MEI with glucose 0.5%, 6 h",110.2 nmol
same,"PolyP 16 h, Control (glucose)","polyP [6]; MEI with glucose 0.5%, 16 h",70.2 nmol
same,"PolyP 6 h, LNT","polyP [6]; MEI without glucose + LNT 1% w/v, 6 h",117.0 nmol
same,"PolyP 16 h, LNT","polyP [6]; MEI without glucose + LNT 1% w/v, 16 h",145.0 nmol
same,"PolyP 6 h, Breast milk","polyP [6]; MEI without glucose + breast milk 1% v/v, 6 h",18.5 nmol
same,"PolyP 16 h, Breast milk","polyP [6]; MEI without glucose + breast milk 1% v/v, 16 h",2.0 nmol
